Laboratory results as given in patent US20090062253A1, “HETEROCYCLODIAZEPINE CANNABINOID RECEPTOR MODULATORS FOR TREATMENT OF DISEASE” (KALYPSYS, INC., priority 2007, published 2009).

Assays:
[1] = molecular target: T1, human cannabinoid receptor type 1 (Homo sapiens, UniProt P21554); experiment: Human CB1 Radioligand Binding Assay (basis of selectivity CB2 vs. CB1)
T1 construct: purchased Perkin Elmer RBHCB1M; host or cells: HEK 293 EBNA cells
Protocol: (§1) This receptor binding filtration assay measures the receptor-ligand interactions of compounds by measuring ability to compete with a radiolabeled control ligand. Reactions were performed in 96 deep-well plate (Costar 3961) with a final volume of 600 ul. Compounds were added to each well either in single point (10 uM final) or dose-response. Compounds were delivered in DMSO or further diluted in incubation buffer to a final assay DMSO concentration of 1%. Incubation buffer (50 mM Tris-HCl pH 7.4, 2.5 mM EGTA, 5 mM MgCl2, 5.0 mg/ml fatty acid free BSA) was added to each well. Following buffer addition, [^3H] CP-55,940 was added. Tritiated CP-55,940 (Perkin Elmer) was used at the Kd determined from prior saturation binding experiments conducted on each lot of membranes. Membrane preparations from stably transfected CHO CB2 cells were added and the reaction was incubated for 90 minutes at 30° C. Unifilter GF/C filtration plates (Perkin Elmer) were pre-wet with 0.05% polyethylenimine. Samples were transferred to Unifilter plates and separation of unbound radioligand was achieved using a vacuum manifold (Millipore). Following thorough washing with 5 ml/well ice-cold wash buffer (50 mM Tris-HCl pH 7.4, 2.5 mM EGTA, 5 mM MgCl2, 0.5 mg/ml fatty acid free BSA), filterplates were dried completely. Betaplate Scint Scintillation cocktail (25 ul, Perkin Elmer) was applied and plates were read using Microbeta Trilux (Wallac). Data analysis was performed in Spotfire. Activity of the positive control (100 nM CP-55,940) was set as 100% efficacy.
The CB1 binding assay was performed as described above except that HEK 293 EBNA cells expressing human cannabinoid receptor type 1 (Perkin Elmer cat #RBHCB1M) were used according the manufacturer's instructions. The incubation buffer was composed of 50 mM Tris-HCl pH 7.4, 2.5 mM EDTA, 5 mM MgCl2, 5.0 mg/ml fatty acid free BSA and the wash buffer was composed of 50 mM Tris-HCl pH 7.4, 2.5 mM EDTA, 5 mM MgCl2, 0.5 mg/ml fatty acid free BSA. Activity of the positive control (100 nM CP-55,940) was set as 100% efficacy.

Human CB2 = molecular target: T2, Human CB2 (Homo sapiens, UniProt P34972); experiment: Human CB2 Radioligand Binding Assay; conditions: membranes from stably transfected CHO CB2 cells; competition with [3H] CP-55,940; read-out: CB2 Ligand Binding Asssay
T2 construct: expressed in transfected cells; membrane preparation
T2 sequence (P34972 whole entry): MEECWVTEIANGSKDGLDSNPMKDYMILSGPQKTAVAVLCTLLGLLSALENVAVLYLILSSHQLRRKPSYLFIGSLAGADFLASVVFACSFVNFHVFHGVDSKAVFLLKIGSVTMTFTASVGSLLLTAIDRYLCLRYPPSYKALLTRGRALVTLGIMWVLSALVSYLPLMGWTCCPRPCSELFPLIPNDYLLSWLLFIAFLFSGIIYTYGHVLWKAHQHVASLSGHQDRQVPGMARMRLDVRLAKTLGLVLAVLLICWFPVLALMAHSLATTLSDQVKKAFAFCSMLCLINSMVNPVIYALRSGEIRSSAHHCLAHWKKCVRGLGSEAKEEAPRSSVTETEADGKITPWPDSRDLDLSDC
Protocol: as §1
Stable recombinant Human CB2-CHO cell membranes were prepared as follows: Chinese Hamster Ovarian (CHO) cells stably expressing human cannabinoid receptor type 2 were grown to ˜90% confluence in 15×100 mm culture dishes under puromycin selection (5 ug/ml) Cells were harvested from culture flasks using a cell scraper, were washed once with cold phosphate-buffered saline (calcium and magnesium free) and pelleted by centrifugation at 400 g for 5 min at 4° C. Cell pellet was washed once with cold phosphate-buffered saline and centrifuged again at 400×g for 5 min at 4° C. The pellet was suspended in ice-cold lysis buffer (10 mM Tris-HCl, 0.1 mM EDTA, containing […], pH 7.5) and homogenized in a chilled 7 ml glass dounce homogenizer using 50 strokes. The homogenate was centrifuged at 400 g for 15 min at 4° C. The cloudy supernatant was collected and centrifuged at 41000 g for 30 min at 4° C. The resulting pellet was washed with ice-cold sucrose-free lysis buffer and centrifuged again at 41000 g for 30 min at 4° C. The membrane pellet was suspended in sucrose-free storage buffer (10 mm Tris-HCl, 0.1 mM EDTA, pH 7.5) to a concentration of 2-3 mg protein/ml. Aliquots were flash frozen in liquid nitrogen and stored at −80° C. Concentration was determined using Dc protein assay kit (Bio-Rad).

T1 sequence (P21554 whole entry): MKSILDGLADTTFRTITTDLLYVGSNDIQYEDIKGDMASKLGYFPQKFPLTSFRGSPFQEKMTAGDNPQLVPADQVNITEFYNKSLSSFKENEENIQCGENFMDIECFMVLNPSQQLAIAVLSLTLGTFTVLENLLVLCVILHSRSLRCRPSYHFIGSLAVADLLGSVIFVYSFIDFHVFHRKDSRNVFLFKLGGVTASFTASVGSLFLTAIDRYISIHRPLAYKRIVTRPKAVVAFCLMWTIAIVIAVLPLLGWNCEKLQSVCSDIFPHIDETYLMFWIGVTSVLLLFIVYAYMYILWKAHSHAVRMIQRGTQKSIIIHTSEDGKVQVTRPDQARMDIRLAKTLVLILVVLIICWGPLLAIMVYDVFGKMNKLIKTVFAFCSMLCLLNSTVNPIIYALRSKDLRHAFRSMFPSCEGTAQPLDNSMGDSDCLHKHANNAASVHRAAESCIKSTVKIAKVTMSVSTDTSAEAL

Structure (SMILES) | Selectivity, CB2 vs. CB1 [1] | IC50 (radioligand displacement) (Human CB2) [µM]
O=C(Nc1ccc(Cl)cc1Cl)N1CCCn2cccc2C1Cc1ccccc1 (stereo not drawn) [Example 21, 1-Benzyl-N-(2,4-dichlorophenyl)-4,5-dihydro-1H-pyrrolo[1,2-a][1,4]diazepine-2(3H)-carboxamide] | − (− indicates < 10-fold) | > 1
CC(C)(C)c1ccc(CC2c3cccn3CCCN2C(=O)Nc2ccc(F)cc2F)cc1 (stereo not drawn) [Example 23, 1-(4-tert-Butylbenzyl)-N-(2,4-difluorophenyl)-4,5-dihydro-1H-pyrrolo[1,2-a][1,4]diazepine-2(3H)-carboxamide] | + (+ indicates > 10-fold) | < 1
CC(C)(C)c1ccc(CC2c3cccn3CCCN2C(=O)Nc2ccc(Cl)cc2Cl)cc1 (stereo not drawn) [Example 24, 1-(4-tert-Butylbenzyl)-N-(2,4-dichlorophenyl)-4,5-dihydro-1H-pyrrolo[1,2-a][1,4]diazepine-2(3H)-carboxamide] | − (− indicates < 10-fold) | < 1
CC(C)(C)c1ccc(C2c3ccnn3CCCN2C(=O)Nc2ccc(Cl)cc2Cl)cc1 (stereo not drawn) [Example 25, 4-(4-tert-Butylphenyl)-N-(2,4-dichlorophenyl)-7,8-dihydro-4H-pyrazolo [1,5-a][1,4]diazepine-5(6H)-carboxamide] | + (+ indicates > 10-fold) | < 1
CC(C)(C)c1ccc(C2c3nccn3CCCN2C(=O)Nc2ccc(F)cc2F)cc1 (stereo not drawn) [Example 27, 9-(4-tert-Butylphenyl)-N-(2,4-difluorophenyl)-6,7-dihydro-5H-imidazo [1,2-a][1,4]diazepine-8(9H)-carboxamide] | + (+ indicates > 10-fold) | < 1
CC(C)(C)c1ccc(C2c3nccn3CCCN2C(=O)Nc2ccc(F)c(F)c2)cc1 (stereo not drawn) [Example 28, 9-(4-tert-Butylphenyl)-N-(3,4-difluorophenyl)-6,7-dihydro-5H-imidazo[1,2-a][1,4]diazepine-8(9H)-carboxamide] | + (+ indicates > 10-fold) | < 1
CC(C)(C)c1ccc(C2c3nccn3CCCN2C(=O)Nc2ccc(Cl)cc2Cl)cc1 (stereo not drawn) [Example 29, 9-(4-tert-Butylphenyl)-N-(2,4-dichlorophenyl)-6,7-dihydro-5H-imidazo[1,2-a][1,4]diazepine-8(9H)-carboxamide] | − (− indicates < 10-fold) | > 1
CC(C)(C)c1ccc(C2c3cncn3CCCN2C(=O)Nc2ccc(Cl)cc2Cl)cc1 (stereo not drawn) [Example 31, 9-(4-tert-Butylphenyl)-N-(2,4-dichlorophenyl)-6,7-dihydro-5H-imidazo[1,5-a][1,4]diazepine-8(9H)-carboxamide] | + (+ indicates > 10-fold) | < 1
CC(C)(C)C1CCC(C2NCCCn3cccc32)CC1 (stereo not drawn) [Example 32, 1-(4-tert-Butylcyclohexyl)-2,3,4,5-tetrahydro-1H-pyrrolo[1,2-a][1,4]diazepine] | + (+ indicates > 10-fold) | > 1
CC(C)(C)C1CCC(C2c3cccn3CCCN2C(=O)Nc2ccc(F)c(F)c2)CC1 (stereo not drawn) [Example 33, 1-(4-tert-Butylcyclohexyl)-N-(3,4-difluorophenyl)-4,5-dihydro-1H-pyrrolo[1,2-a][1,4]diazepine-2(3H)-carboxamide] | − (− indicates < 10-fold) | < 1
CC(C)(C)C1CCC(C2c3cccn3CCCN2C(=O)Nc2ccc(F)cc2F)CC1 (stereo not drawn) [Example 34, 1-(4-tert-Butylcyclohexyl)-N-(2,4-difluorophenyl)-4,5-dihydro-1H-pyrrolo[1,2-a][1,4]diazepine-2(3H)-carboxamide] | + (+ indicates > 10-fold) | < 1
CC(C)(C)C1CCC(C2c3cccn3CCCN2C(=O)Nc2ccc(Cl)cc2Cl)CC1 (stereo not drawn) [Example 35, 1-(4-tert-Butylcyclohexyl)-N-(2,4-dichlorophenyl)-4,5-dihydro-1H-pyrrolo[1,2-a][1,4]diazepine-2(3H)-carboxamide] | − (− indicates < 10-fold) | < 1
CC(C)(C)c1ccc(C2c3ccnn3CCCN2C(=O)Nc2ccc(F)cc2F)cc1 (stereo not drawn) [Example 36, 4-(4-tert-Butylphenyl)-N-(2,4-difluorophenyl)-7,8-dihydro-4H-pyrazolo[1,5-a][1,4]diazepine-5(6H)-carboxamide] | + (+ indicates > 10-fold) | < 1
CC(C)(C)c1ccc(C2c3cncn3CCCN2C(=O)Nc2ccc(F)cc2F)cc1 (stereo not drawn) [Example 37, 9-(4-tert-Butylphenyl)-N-(2,4-difluorophenyl)-6,7-dihydro-5H-imidazo[1,5-a][1,4]diazepine-8(9H)-carboxamide] | + (+ indicates > 10-fold) | < 1
O=C(Nc1ccc(F)cc1F)N1CCCn2cccc2C1Cc1ccccc1 (stereo not drawn) [Example 41, 1-Benzyl-N-(2,4-difluorophenyl)-4,5-dihydro-1H-pyrrolo[1,2-a][1,4]diazepine-2(3H)-carboxamide] | − (− indicates < 10-fold) | > 1
CC(C)(C)C1CCC(C2c3cccn3CCCN2C(=O)c2ccc(F)cc2F)CC1 (stereo not drawn) [Example 45, (1-(4-tert-Butylcyclohexyl)-4,5-dihydro-1H-pyrrolo[1,2-a][1,4]diazepin-2(3H)-yl)(2,4-difluorophenyl)methanone] | − (− indicates < 10-fold) | < 1
CC(=O)N1CCCn2cccc2C1c1ccc(C(C)(C)C)cc1 (stereo not drawn) [Example 46, 1-(1-(4-tert-Butylphenyl)-4,5-dihydro-1H-pyrrolo[1,2-a][1,4]diazepin-2(3H)-yl)ethanone] | − (− indicates < 10-fold) | > 1
CC(C)(C)c1ccc(C2c3nccn3CCCN2C(=O)c2ccc(F)cc2F)cc1 (stereo not drawn) [Example 47, (9-(4-tert-Butylphenyl)-6,7-dihydro-5H-imidazo[1,2-a][1,4]diazepin-8(9H)-yl)(2,4-difluorophenyl)methanone] | − (− indicates < 10-fold) | < 1
CC(C)(C)c1ccc(C2c3nccn3CCCN2C(=O)c2ccc(Cl)cc2Cl)cc1 (stereo not drawn) [Example 48, (9-(4-tert-Butylphenyl)-6,7-dihydro-5H-imidazo[1,2-a][1,4]diazepin-8(9H)-yl)(2,4-dichlorophenyl)methanone] | − (− indicates < 10-fold) | > 1
CC(C)(C)c1ccc(C2c3cccn3CCCN2C(=O)c2ccc(Cl)cc2Cl)cc1 (stereo not drawn) [Example 49, (1-(4-tert-Butylphenyl)-4,5-dihydro-1H-pyrrolo[1,2-a][1,4]diazepin-2(3H)-yl)(2,4-dichlorophenyl)methanone] | − (− indicates < 10-fold) | < 1
CC(C)(C)c1ccc(C2c3cccn3CCCN2C(=O)Cc2ccc(F)cc2)cc1 (stereo not drawn) [Example 50, 1-(1-(4-tert-Butylphenyl)-4,5-dihydro-1H-pyrrolo[1,2-a][1,4]diazepin-2(3H)-yl)-2-(4-fluorophenyl)ethanone] | − (− indicates < 10-fold) | < 1
